Biological target: T1, Platelet-activating factor acetylhydrolase IB subunit alpha2 (Mus musculus, UniProt Q61206)
T1 sequence (Q61206 whole entry): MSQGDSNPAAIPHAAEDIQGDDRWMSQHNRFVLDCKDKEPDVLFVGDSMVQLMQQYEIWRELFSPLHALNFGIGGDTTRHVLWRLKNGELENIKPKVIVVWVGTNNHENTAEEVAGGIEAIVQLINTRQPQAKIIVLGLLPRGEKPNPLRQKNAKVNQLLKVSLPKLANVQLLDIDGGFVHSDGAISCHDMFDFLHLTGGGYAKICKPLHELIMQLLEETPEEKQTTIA
Assay: Competitive ABPP Assays in Proteomes with FP-alkyne
Conditions: pH 7.5
Protocol: Total protein concentrations for each fraction were adjusted to 1 mg/mL in PBS (50 μL total reaction volume). Samples were then subjected to click chemistry by the addition of 1 mM CuSO4 (1 μL of a 50x stock in DMSO), followed by TBTA (3 μL of a 17x stock in 4:1 t-butanol:DMSO), then 25 μM Rh-N3 (1 μL of a 50x stock in DMSO) and 1 mM TCEP (1 μL of a 50x stock in DMSO). Reactions were vortexed, incubated for 1 h at 25 °C, and quenched with 4x SDS-PAGE loading buffer and analyzed by in-gel fluorescence scanning.

COC(=O)C1=CCC(c2ccc(C)cc2)N(S(=O)(=O)c2ccc(C)cc2)C1c1ccc(C(C)(C)C)cc1 (stereo unspecified) [Methyl-2-(4-(tert-butyl)phenyl)-6-(p-tolyl)-1-tosyl-1,2,5,6-tetrahydropyridine-3-carboxylate (JW1068)] showed an IC50 greater than 10 µM.
For Cc1ccc(S(=O)(=O)N2C(c3ccc(C(C)C)cc3)CC=C(C(=O)O)C2c2ccc(F)cc2)cc1 (stereo unspecified) [2-(4-fluorophenyl)-1-(4-methylbenzenesulfonyl)-6-[4-(propan-2-yl)phenyl]-1,2,5,6-tetrahydropyridine-3-carboxylic acid (B6)], the IC50 was 1.1 µM.
Compound Cc1ccc(C2CC=C(C(=O)NC3CC3)C(c3ccc(C(C)(C)C)cc3)N2S(=O)(=O)c2ccc(C)cc2)cc1 (stereo unspecified) [2-(4-(tert-butyl)phenyl)-N-cyclopropyl-6-(p-tolyl)-1-tosyl-1,2,5,6-tetrahydropyridine-3-carboxamide (JW1038)] has an IC50 of 9.3 µM.
In the case of Cc1ccc(S(=O)(=O)N2C(c3ccc(Cl)cc3)CC=C(C(=O)O)C2c2ccc(Br)cc2)cc1 (stereo unspecified) [2-(4-bromophenyl)-6-(4-chlorophenyl)-1-(4-methylbenzenesulfonyl)-1,2,5,6-tetrahydropyridine-3-carboxylic acid (H4)], the IC50 is reported as 1.1 µM.
With COCCNC(=O)C1=CCC(c2ccc(C)cc2)N(S(=O)(=O)c2ccc(C)cc2)C1c1ccc(C(C)(C)C)cc1 (stereo unspecified) [2-(4-(tert-butyl)phenyl)-N-(2-methoxyethyl)-6-(p-tolyl)-1-tosyl-1,2,5,6-tetrahydropyridine-3-carboxamide (JW1041)] the IC50 was 1.7 µM.
Cc1ccc(C2CC=C(CNC3CC3)C(c3ccc(C(C)(C)C)cc3)N2S(=O)(=O)c2ccc(C)cc2)cc1 (stereo unspecified) [N-((2-(4-(tert-butyl)phenyl)-6-(p-tolyl)-1-tosyl-1,2,5,6-tetrahydropyridin-3-yl)methyl)cyclopropanamine (JW1061)] was tested, and the IC50 was 7.6 µM.
Cc1ccc(C2C(C(=O)O)=CCC(c3ccc(C(C)C)cc3)N2S(=O)(=O)c2ccc(C)cc2)cc1 (stereo unspecified) [1-(4-methylbenzenesulfonyl)-2-(4-methylphenyl)-6-[4-(propan-2-yl)phenyl]-1,2,5,6-tetrahydropyridine-3-carboxylic acid (F5)] gave an IC50 of 4.5 µM.
In the case of C=CCNC(=O)C1=CCC(c2ccc(C)cc2)N(S(=O)(=O)c2ccc(C)cc2)C1c1ccc(C(C)(C)C)cc1 (stereo unspecified) [N-allyl-2-(4-(tert-butyl)phenyl)-6-(p-tolyl)-1-tosyl-1,2,5,6-tetrahydropyridine-3-carboxamide (JW1043)], the IC50 is reported as 7.5 µM.
CCc1ccc(C2CC=C(C(=O)O)C(c3cccc(Cl)c3)N2S(=O)(=O)c2ccc(C)cc2)cc1 (stereo unspecified) [2-(3-chlorophenyl)-6-(4-ethylphenyl)-1-(4-methylbenzenesulfonyl)-1,2,5,6-tetrahydropyridine-3-carboxylic acid (J8)] gave an IC50 of 9.4 µM.
Work on Cc1ccc(C2CC=C(C(=O)NC3CCCCC3)C(c3ccc(C(C)(C)C)cc3)N2S(=O)(=O)c2ccc(C)cc2)cc1 (stereo unspecified) [2-(4-(tert-butyl)phenyl)-N-cyclohexyl-6-(p-tolyl)-1-tosyl-1,2,5,6-tetrahydropyridine-3-carboxamide (JW1039)] yielded an IC50 greater than 10 µM.
In the case of CNC(=O)C1=CCC(c2ccc(C)cc2)N(S(=O)(=O)c2ccc(C)cc2)C1c1ccc(C(C)(C)C)cc1 (stereo unspecified) [2-(4-(tert-butyl)phenyl)-N-methyl-6-(p-tolyl)-1-tosyl-1,2,5,6-tetrahydropyridine-3-carboxamide (JW1036)], the IC50 is reported as greater than 10 µM.
In the case of Cc1ccc(C2CC=C(C(=O)O)C(c3ccc(C(C)(C)C)cc3)N2S(=O)(=O)c2ccc(C)cc2)cc1 (stereo unspecified) [2-(4-tert-butylphenyl)-1-(4-methylbenzenesulfonyl)-6-(4-methylphenyl)-1,2,5,6-tetrahydropyridine-3-carboxylic acid (P11)], the IC50 is reported as 0.8 µM.
In the case of Cc1ccc(C2CC=C(CBr)C(c3ccc(C(C)(C)C)cc3)N2S(=O)(=O)c2ccc(C)cc2)cc1 (stereo unspecified) [5-(bromomethyl)-6-(4-(tert-butyl)phenyl)-2-(p-tolyl)-1-tosyl-1,2,3,6-tetrahydropyridine (JW1058)], the IC50 is reported as 4.6 µM.
In the case of Cc1ccc(S(=O)(=O)N2C(c3ccc(Cl)c(Cl)c3)CC=C(C(=O)O)C2c2ccc(Br)cc2)cc1 (stereo unspecified) [2-(4-bromophenyl)-6-(3,4-dichlorophenyl)-1-(4-methylbenzenesulfonyl)-1,2,5,6-tetrahydropyridine-3-carboxylic acid (K9)], the IC50 is reported as 1.4 µM.
Compound Cc1ccc(C2CC=C(C(=O)O)C(c3ccc(F)cc3)N2S(=O)(=O)c2ccc(C)cc2)cc1 (stereo unspecified) [2-(4-fluorophenyl)-1-(4-methylbenzenesulfonyl)-6-(4-methylphenyl)-1,2,5,6-tetrahydropyridine-3-carboxylic acid (O8)] has an IC50 of 2 µM.
With Cc1ccc(C2CC=C(C(=O)O)C(c3cccc(Cl)c3)N2S(=O)(=O)c2ccc(C)cc2)cc1 (stereo unspecified) [2-(3-chlorophenyl)-1-(4-methylbenzenesulfonyl)-6-(4-methylphenyl)-1,2,5,6-tetrahydropyridine-3-carboxylic acid (J13)] the IC50 was 8.2 µM.
